Two compounds from US9017681B2, “Adenylyl cyclases as novel targets for antibactrial interventions” (Cornell Research Foundation, Inc., priority 2007, dated 2015) can be followed below.

Entries after “also recorded” stand apart in the source; their conditions may differ. Read-outs that look alike come from different tables or passages of the source.

The term inhibition denotes how much of the control response was suppressed. As a reminder, the IC50 is the midpoint of a concentration-inhibition curve.

In one test the target is T1, human sAC (Homo sapiens, UniProt Q96PN6).
T1 construct: made in house
T1 sequence (Q96PN6 1-469 limits assumed): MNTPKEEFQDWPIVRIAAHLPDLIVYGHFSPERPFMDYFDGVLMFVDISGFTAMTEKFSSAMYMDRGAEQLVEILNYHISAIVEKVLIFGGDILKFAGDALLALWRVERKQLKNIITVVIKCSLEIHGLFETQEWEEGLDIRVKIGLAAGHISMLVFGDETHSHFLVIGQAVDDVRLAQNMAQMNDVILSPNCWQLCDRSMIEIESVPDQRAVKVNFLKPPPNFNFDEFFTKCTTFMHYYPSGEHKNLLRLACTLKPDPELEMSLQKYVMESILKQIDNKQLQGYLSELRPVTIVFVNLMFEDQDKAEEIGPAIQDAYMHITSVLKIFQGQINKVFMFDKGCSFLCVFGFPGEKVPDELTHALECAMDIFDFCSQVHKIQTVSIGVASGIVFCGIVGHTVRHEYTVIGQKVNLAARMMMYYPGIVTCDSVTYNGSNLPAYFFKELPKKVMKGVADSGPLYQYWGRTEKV
Put plainly: in vitro adenylyl cyclase assay with purified human sAC protein (cAMP by Correlate-EIA). In kind it is biochemical. The following applies: for inhibition at 100 µM: 100 μM of compound. The procedure:
Purified human sAC protein was used in an in vitro adenylyl cyclase assay. Purification of the protein is described in detail in Litvin et al. 2003. (J. Biol. Chem. 278:15922-15926). This paper also describes the general conditions for a sAC cyclase assay. The specific conditions for the in vitro assay are as follows.
For basal sAC activity, an assay master mixture with sufficient volume for all reactions was prepared containing:
100 U/ml creatine phosphokinase (CPK)
An aliquot of the master mixture was added to the purified human sAC. The assay mixture also included the indicated concentration of KH compound, or an equivalent volume of vehicle (i.e., DMSO) as control. The reaction was started by adding 5 mM ATP (total assay volume=100 μL). The reaction mixture was incubated at 30° C. for 30 minutes and then stopped by adding 100 μl […]. Stimulated assay conditions involve adding 40 mM bicarbonate and 5 mM CaCl2 to the above master mixture.
(§1) Cyclic AMP levels were measured in each sample using the Correlate-EIA Direct Cyclic AMP assay kit from Assay Designs as per manufacturers instructions.

The test system of test [1] is P. aeruginosa CyaB (a Class III adenylyl cyclase). Put plainly: Pseudomonas adenylyl cyclase assay with purified His-CyaB. In kind it is biochemical, Pseudomonas aeruginosa. The following applies: increasing concentrations of compound, FIG. 1 / FIG. 2. Here is the method:
FIG. 1. […] The CyaB was heterologously expressed in E. coli as a poly-histidine tagged fusion protein and purified using a nickel column. Adenylyl cyclase activity was determined by measuring cyclic AMP levels using the Correlate-EIA Direct Cyclic AMP assay kit from Assay Designs as per manufacturers instructions.
FIG. 2. […] The CyaB was heterologously expressed in E. coli as a poly-histidine tagged fusion protein and purified using a nickel column. Adenylyl cyclase activity was determined by measuring cyclic AMP levels using the Correlate-EIA Direct Cyclic AMP assay kit from Assay Designs as per manufacturers instructions.
P. aeruginosa CyaB (a Class III adenylyl cyclase) was heterologously expressed in E. coli as a HIS-tagged, fusion protein. Expression of the fusion protein was induced by Isopropyl β-D-1-thiogalactopyranoside (IPTG) t at 21° C. (empirically found to be best temperature for expression). The His-CyaB fusion protein was purified using a nickel affinity column according to standard protocols in the absence of any reducing agent. Eluted protein was dialyzed into storage buffer consisting of: 50 mM Tris (pH 8.5), 10 mM NaCl, 2 mM MgCl2, and 25% glycerol.
The purified CyaB was assayed for cyclase activity as follows. […]
as §1

Setting [2] is: BASAL human sAC in vitro activity, read-out: % Inhibition (100 μM), hsACt-Basal.
[3] abbreviates: stimulated human sAC in vitro activity, read-out: % Inhibition (100 μM), hsACt-Stim.
[4] abbreviates: BASAL activity of human sAC in vitro (just Mg-ATP, no calcium or bicarbonate), read-out: hsACt-Basal approximate IC50 (or the dose range where the IC50 should lie).
The mark [5] stands for this setting: stimulated activity of human sAC in vitro (calcium and bicarbonate stimulated), read-out: hsACt-Stim. approximate IC50 (or the dose range where the IC50 should lie).

Consider `COc1ccc(C2=NN(C(=O)CSc3nc4ccccc4[nH]3)C(c3ccc(F)cc3)C2)cc1` (stereo not shown) [KH7.120], for which the inhibition at 100 µM at human sAC (setting [2]) and on human sAC (setting [3]) was 90% throughout. For the same compound, the IC50 at human sAC (setting [4]) and at human sAC (setting [5]) was 10 to 100 µM each time. In test [1], the “effect on CyaB adenylyl cyclase activity” value is recorded as “activator; also recorded: increase in the activity”.
With `O=C(CSc1nc2ccccc2[nH]1)N/N=C/c1ccc(O)c(O)c1` [KH7.148], the inhibition at 100 µM at human sAC (setting [2]) stood at 70%; at human sAC (setting [3]), 80%. Further, the IC50 at human sAC (setting [4]) was 10 to 100 µM; at human sAC (setting [5]), 1 to 10 µM. The “effect on CyaB adenylyl cyclase activity” value in test [1] is recorded as “inhibitor; also recorded: decrease in the activity”.
